These results are taken from patent EP0314154A2, “Tetrahydrofuro- and thieno(2,3-c)pyridines, their use as a medicament and process for their preparation” (BOEHRINGER INGELHEIM KG, priority 1987, dated 1989).

pKi: −log10 of the molar value.

For one experiment, the target named is T1, Rezeptorsubtyp M₁ (Rattus norvegicus, UniProt P08482).
T1 construct: HIPPOCAMPUS; from tissue; host or cells: hippocampus
T1 sequence (P08482 1-460): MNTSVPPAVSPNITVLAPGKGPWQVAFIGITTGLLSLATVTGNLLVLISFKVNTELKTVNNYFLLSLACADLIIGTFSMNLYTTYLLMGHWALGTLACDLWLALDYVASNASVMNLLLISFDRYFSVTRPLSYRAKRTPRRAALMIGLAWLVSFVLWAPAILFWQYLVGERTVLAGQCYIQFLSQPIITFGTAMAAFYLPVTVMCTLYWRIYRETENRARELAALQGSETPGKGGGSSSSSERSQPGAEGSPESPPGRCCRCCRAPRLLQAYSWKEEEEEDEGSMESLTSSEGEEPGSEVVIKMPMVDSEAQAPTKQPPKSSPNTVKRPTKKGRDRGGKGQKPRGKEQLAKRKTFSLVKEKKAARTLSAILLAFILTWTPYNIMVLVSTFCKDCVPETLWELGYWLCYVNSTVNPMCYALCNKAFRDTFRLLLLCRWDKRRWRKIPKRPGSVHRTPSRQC
The experiment is described as follows: Muscarinic receptor binding study, M₁ subtype, hippocampus, [³H]pirenzepine. The following applies: Organ HIPPOCAMPUS, [³H]Ligand Pirenzepin, kind of constant not stated. From the text:
(§1) Die Rezeptorbindungsstudien im muskarinisch cholinergen System wurden an den drei Rezeptorsubtypen gemäß den untenstehenden Literaturzitaten ausgeführt (Watson, M., H. I. Yamamura and W.R. Roeske 1983, Life Sci. 32, 3001-3011; Hammer, R., C.P. Berrie, N.I.M. Birdsall, A.S.V. Burgen and E.C. Hulme 1980, Nature 283, 90-92; Hammer, R., E. Giraldo, G.B. Schiavi, E. Monferini and H. Ladinsky 1986, Life Sci. 38, 1653-1662;).

A further experiment addresses T2, Rezeptorsubtyp M₂ (Rattus norvegicus, UniProt P10980).
T2 construct: Herz; from tissue; host or cells: heart
T2 sequence (P10980 1-466): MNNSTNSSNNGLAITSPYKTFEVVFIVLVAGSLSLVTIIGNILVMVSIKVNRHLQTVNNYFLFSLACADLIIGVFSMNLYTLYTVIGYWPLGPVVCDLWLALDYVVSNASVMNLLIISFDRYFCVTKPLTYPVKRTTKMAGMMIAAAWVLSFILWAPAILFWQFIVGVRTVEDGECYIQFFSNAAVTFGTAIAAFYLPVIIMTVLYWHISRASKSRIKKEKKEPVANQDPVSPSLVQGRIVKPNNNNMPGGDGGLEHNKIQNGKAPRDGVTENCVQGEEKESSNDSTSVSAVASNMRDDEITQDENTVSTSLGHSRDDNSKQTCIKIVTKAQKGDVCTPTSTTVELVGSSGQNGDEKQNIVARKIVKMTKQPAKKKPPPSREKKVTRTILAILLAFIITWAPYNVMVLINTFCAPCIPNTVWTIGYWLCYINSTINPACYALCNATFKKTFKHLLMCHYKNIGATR
The experiment is described as follows: Muscarinic receptor binding study, M₂ subtype, heart, [³H]N-methylscopolamine. The following applies: Organ Herz, [³H]Ligand N-Methylscopolamin, kind of constant not stated.
Excerpt: as §1

The target in another experiment is T3, Rezeptorsubtyp M₃ (Rattus norvegicus, UniProt P08483).
T3 construct: Tränendrüse; from tissue; host or cells: lacrimal gland
The experiment is described as follows: Muscarinic receptor binding study, M₃ subtype, lacrimal gland, [³H]N-methylscopolamine. The following applies: Organ Tränendrüse, [³H]Ligand N-Methylscopolamin, kind of constant not stated.
Excerpt: as §1

Another experiment deals with Agonisten Bindungsstelle. Put plainly: [³H]cis-methyldioxolane binding study (muscarinic agonist binding site). The following applies: [³H]Ligand cis-Methyldioxolan. From the text: Die erfindungsgemäßen Verbindungen verdrängen den muscarinen Agonisten mit hoher Affinität von der Agonisten Bindungsstelle. Die Durchführung der [3H]cis-Methyldioxolan-Bindungsstudien erfolgen analog zu A Closs et al., Naunyn Schmiedebergs Arch. Pharmacol 335, 372-377 (1987). Die Ergebnisse sind in Tabelle Ia zusammengestellt Tabelle Ia: […]

Experiment [1] in a line: EEG of the awake rabbit (arousal reaction). The format is in vivo. The following applies: waches Kaninchen. From the text:
Die erfindungsgemäßen tertiären Amine der allgemeinen Formel I zeigen Affinitäten zu muscarinen Rezeptoren im ZNS und im Tierexperiment muscarine agonistische Eigenschaften im ZNS.

The nature of experiment [2]: Haloperidol-induced dyskinesias in haloperidol-sensitised monkeys. The format is in vivo. The following applies: gegen Haloperidol sensibilisierte Affen; Dosis < 1 mg/kg i.m.

T3 sequence (P08483 whole entry): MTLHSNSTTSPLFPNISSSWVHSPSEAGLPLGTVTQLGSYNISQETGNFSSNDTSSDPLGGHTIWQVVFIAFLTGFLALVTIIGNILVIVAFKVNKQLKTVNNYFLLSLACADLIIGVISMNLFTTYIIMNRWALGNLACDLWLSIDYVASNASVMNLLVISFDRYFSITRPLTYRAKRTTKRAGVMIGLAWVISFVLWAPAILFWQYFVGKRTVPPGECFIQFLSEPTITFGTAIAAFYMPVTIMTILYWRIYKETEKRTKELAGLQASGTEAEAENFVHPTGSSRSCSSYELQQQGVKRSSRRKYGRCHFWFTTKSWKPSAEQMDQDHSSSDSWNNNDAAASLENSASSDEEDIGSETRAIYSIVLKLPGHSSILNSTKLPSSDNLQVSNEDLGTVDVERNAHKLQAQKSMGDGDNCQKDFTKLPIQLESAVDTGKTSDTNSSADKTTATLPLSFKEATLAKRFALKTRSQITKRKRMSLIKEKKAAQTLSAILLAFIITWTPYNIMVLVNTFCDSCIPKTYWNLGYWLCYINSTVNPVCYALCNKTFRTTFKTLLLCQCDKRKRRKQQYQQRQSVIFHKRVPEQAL

In the case of `CCN1CCc2c(oc(C)c2C)C1` [X=O, R₁=CH₃, R₂=CH₃, R₃=H, R₄=Et, R₅=H], the Rezeptorbindung at Rezeptorsubtyp M₁ and on Rezeptorsubtyp M₂ was 3,2 µMol throughout.
For `Cc1cc2c(o1)CN(C)CC2` [X=O, R₁=CH₃, R₂=H, R₃=H, R₄=CH₃, R₅=H, 2,6-Dimethyl-4,5,6,7-tetrahydrofuro[2,3-c]pyridin], the Rezeptorbindung at Rezeptorsubtyp M₁ is recorded as 8,3 µMol; at Rezeptorsubtyp M₂ it was 6,5 µMol; at Rezeptorsubtyp M₃, 24,2 µMol. The negative-log Ki (pKi) at Agonisten Bindungsstelle is 7.09. Also, the “Arousal-Reaktion im EEG” value in experiment [1] (1 mg/kg i.v.) and in experiment [1] (3 mg/kg p.o.) was “eine für Cholinomimetica typische Arousal-Reaktion” in each case.
For the molecule `CCc1cc2c(o1)CN(C)CC2` [X=O, R₁=Et, R₂=H, R₃=H, R₄=CH₃, R₅=H, 2-Ethyl-6-methyl-4,5,6,7-tetrahydro-furo[2,3-c]pyridin], the results for the Rezeptorbindung on Rezeptorsubtyp M₁ and on Rezeptorsubtyp M₂ were 1,4 µMol and 1,0 µMol, respectively. The pKi on Agonisten Bindungsstelle is 7.28.
Take `CCCc1cc2c(o1)CN(C)CC2` [X=O, R₁=N-Pr, R₂=H, R₃=H, R₄=CH₃, R₅=H, 6-Methyl-2-n-propyl-4,5,6,7,-tetrahydro-furo[2.3-c]pyridin]: the pKi at Agonisten Bindungsstelle is 7.28.
For the molecule `CC(C)Cc1cc2c(o1)CN(C)CC2` [X=O, R₁=iso-Bu, R₂=H, R₃=H, R₄=CH₃, R₅=H, 6-Methyl-2-iso-butyl-4,5,6,7,-tetrahydro-furo[2.3-c]pyridin], the Rezeptorbindung on Rezeptorsubtyp M₁ is listed as 0,8 µMol; on Rezeptorsubtyp M₂ it was 2,5 µMol; at Rezeptorsubtyp M₃, 2,7 µMol.
As to `CCCCc1cc2c(o1)CN(C)CC2` [X=O, R₁=n-Bu, R₂=H, R₃=H, R₄=CH₃, R₅=H, 6-Methyl-2-n-butyl-4,5,6,7,-tetrahydro-furo[2.3-c]pyridin], the results for the Rezeptorbindung at Rezeptorsubtyp M₁ and at Rezeptorsubtyp M₂ were 0,5 µMol and 0,7 µMol, respectively. Also, the pKi on Agonisten Bindungsstelle was 7.41.
With `CCCc1cc2c(o1)CNCC2` [X=O, R₁=n-Pr, R₂=H, R₃=H, R₄=H, R₅=H], the pKi on Agonisten Bindungsstelle was 6.80.
Regarding `Cc1cc2c(s1)CN(C)CC2C` (stereo not drawn) [X=S, R₁=CH₃, R₂=H, R₃=H, R₄=CH₃, R₅=CH₃, 2,4,6-Trimethyl-4,5,6,7-tetrahydrothieno[2,3-c]pyridin], the Rezeptorbindung was 5,8 µMol at Rezeptorsubtyp M₁, 8,4 µMol at Rezeptorsubtyp M₂ and 34,1 µMol at Rezeptorsubtyp M₃.
`Cc1cc2c(s1)CN(C)CC2` [X=S, R₁=CH₃, R₂=H, R₃=H, R₄=CH₃, R₅=H, 2,6-Dimethyl-4,5,6,7-tetrahydrothieno[2,3-c]pyridin]: the Rezeptorbindung is 7,5 µMol on Rezeptorsubtyp M₁, 14 µmol on Rezeptorsubtyp M₂ and 53,1 µMol on Rezeptorsubtyp M₃. In addition, in experiment [2], the “Dyskinesien zusammen mit unterschwelligen Dosen (Haloperidol)” value is recorded as “lösen zusammen mit unterschwelligen Dosen Dyskinesien aus”. The “durch Haloperidol hervorgerufene Dyskinesien” value in experiment [2] is on record as “verstärken”.
Consider `CCN1CCc2cc(C)sc2C1` [X=S, R₁=CH₃, R₂=H, R₃=H, R₄=Et, R₅=H, 6-Ethyl-2-methyl-4,5,6,7-tetrahydrothieno[2,3-c]pyridin], for which the results for the Rezeptorbindung at Rezeptorsubtyp M₁, on Rezeptorsubtyp M₂ and on Rezeptorsubtyp M₃ were 2,2 µMol, 4,5 µMol and 11,4 µMol, respectively.
For `Cc1cc2c(s1)CNCC2` [X=S, R₁=CH₃, R₂=H, R₃=H, R₄=H, R₅=H, 2-Methyl-4,5,6,7,-tetrahydro-thieno[2,3-c]pyridin] the same measures were 39,6 µMol, greater than 100 µmol and greater than 100 µmol.
For `CN1CCc2ccsc2C1` [X=S, R₁=H, R₂=H, R₃=H, R₄=CH₃, R₅=H, 6-Methyl-4,5,6,7,-tetrahydro-thieno[2,3-c]pyridin] the same measures were 36,3 µMol, greater than 100 µmol and greater than 100 µmol.
